In patent publication EP4556003A1, “ANTI-OBESITY AND ANTI-DIABETIC ACTIVITY OF BROMINATED DITERPENES FROM RED ALGAE OF THE GENUS LAURENCIA AND APPLICATIONS THEREOF” (priority 2023, dated 2025):

Assays:
3T3-L1 adipocytes = experiment: Oil red o staining of intracellular lipid accumulation; format: cell-based, Mouse
Protocol: Mouse 3T3-L1 preadipocytes were maintained in proliferation medium containing DMEM supplemented with 10% (v/v) heat inactivated NBCS and 1% (v/v) penicillin-streptomycin at 37 °C with 5% CO2, humidified atmosphere. Cells were seeded in T-75 flasks at a density of 25×10^4 cells/flask. Cultures never became completely confluent according to the manufacturer's instructions. They were passaged using trypsin-EDTA solution once they reached 70-80% confluency. For differentiation, 3T3-L1 cells were seeded and after 24 h (day 1), cell differentiation was induced by changing the medium to high glucose DMEM containing 10% (v/v) heat inactivated FBS, 1% penicillin-streptomycin, 10 µg/mL insulin, 0.25 µM Dexamethasone (GAP), 0.5 mM IBMX (=differentiation medium I). On day 3, the medium was changed to high glucose DMEM containing 10% FBS, 1% penicillin- streptomycin, and 10 µg/mL insulin (=differentiation medium II). Thereafter, medium was changed every other day switching between differentiation medium I and differentiation medium II until day 12 or 23, when adipocytes were harvested. Control group preadipocytes were seeded at a higher density and harvested after two days. Test compounds were administered either at the initiation of differentiation, or after 15 days of differentiation and with every medium change. To determine the effect on preadipocyte differentiation, cells were seeded and after 24 h they were treated with neorogioldiol. Neorogioldiol was maintained in the culture medium throughout cell differentiation period. To determine the effect of neorogioldiol on mature adipocytes, cells were seeded and induced to differentiate for 14 days, then on day 15 neorogioldiol was added to the differentiation medium for 24 h before cells were harvested. Each compound used was diluted in a 90% carbowax™ 400, 10% (v/v) absolute ethanol solution serving as a control solvent. The final concentration in culture was 0.09% (v/v) carbowax and 0.01% (v/v) ethanol. […]
Oil red o staining was applied to measure lipid accumulation intracellularly. Briefly, after 12 or 23 days of differentiation, the cell culture medium was removed and the 3T3-L1 adipocytes were fixed in 3.7% formaldehyde for 60 min at room temperature. Next, a solution of 0.21% oil red o was filtered using a 0.45 µm filter followed by incubation of the fixed cells for 45 min at room temperature. Excess dye was removed and cells were washed twice with PBS. Fresh PBS was added and the lipid droplets within the differentiated 3T3-L1 cells were visualized and photographed by microscopy. For quantitative analysis, oil red o staining was eluted with 100% isopropanol and the absorbance was measured at 510 nm using the Infinite® 200 PRO microplate plate reader (Tecan, Zurich, Switzerland).

[1] = Glucose tolerance test in high fat diet-fed mice; format: in vivo, C57BL/6 adult male mice
Protocol: (§1) All procedures were conducted in compliance with protocols approved by the Animal Care Committee of the University of Crete, School of Medicine (Facility number EL91-BIOexp-06), in conjunction with the Veterinary Department of the Region of Crete, Heraklion, Crete, Greece. C57BL/6 adult male mice were maintained in a 12 h day/night cycle and 21-23 °C conditions. Mice were provided with water and either normal fat diet, or high fat diet (60% energy from fat) ad libitum. All mice were weighed every 48 h.
(§2) Neorogioldiol was first dissolved in 90% carbowaxTM 400, 10% (v/v) absolute ethanol solution and then diluted 1:10 in water for injection. A dose of 0.25 mg neorogioldiol in a total volume of 200 µl was administered intraperitoneally every 48 h in mice in high fat + neorogioldiol group starting from day 1. 4-5 mice were used per group and each experiment was performed twice.
Mice were fasted for 16 h before receiving an intraperitoneal injection of 35% dextrose (100 µl / 35 gr). Blood glucose concentrations were measured in blood collected by venous bleeding from the tail vein immediately before the injections and after 30, 60 and 120 min.

abdominal fat = experiment: Quantitative PCR in fat fraction and stromal vascular fraction of abdominal fat; format: in vivo, C57BL/6 adult male mice
Protocol: Adipocytes and preadipocytes were harvested using the TRI Reagent®. RNA isolation was carried out according to the manufacturer's instructions. The purified RNA was quantified using the Nanodrop micro-volume spectrophotometer and 500 ng of each sample were used as a template for reverse transcription. cDNA synthesis was performed using the PrimeScriptTM RT reagent Kit (TaKaRa, RR037A) according to manufacturer's instructions. The cDNA produced by the above described procedure was diluted and used as a template for two-step quantitative PCR in a StepOnePlus™ Real-Time PCR System (Applied Biosystems™, 4376600) for a maximum of 40 cycles, as follows: start step 95 °C for 3 min, repeat steps: 95 °C for 15 s and 60 °C for 30 s. Amplification was performed using KAPA SYBR® FAST Universal qPCR kit (Kapa Biosystems, KK4618) according to manufacturer's instructions. Relative quantitative analysis was accomplished calculating fold-changes of gene expression as 2-(ΔΔCt), where ΔCt is (Ct (gene of interest) - Ct (housekeeping gene)). Ppib was used as internal control gene in 3T3L1 cells and in the fat fraction of mice abdominal fat, Rps9 was used as internal control gene in the stromal vascular fraction of mice abdominal fat and Actb was used as internal control gene in liver samples. Table 1. List of primers used for quantitative real-time PCR analysis.
as §1, §2
Abdominal fat lobes were weighed, washed in PBS, minced and dissolved with collagenase. They were incubated in 1.5mg/ml collagenase in 1% PBS-BSA, for 30 min at 37 °C. Next, homogenate was centrifuged at 800 rpm for 5 min at room temperature. The upper fatty phase, which contains the adipocytes, was collected and resuspended in TRI Reagent® and RNA isolation was carried out according to the manufacturer's instructions. The cell pellet, which is the stromal vascular fraction, was washed once with PBS and resuspended in TRI Reagent® for RNA isolation.

[2] = high fat diet + neorogioldiol vs high fat diet mice
[3] = high fat diet + neorogioldiol vs untreated obese mice

In the case of neorogioldiol, the lipid accumulation (3T3-L1 adipocytes; differentiation in presence of serial concentrations 62.5, 31.25, 15.625, 7.81 and 3.9 µM, dose-dependent) is reported as “reduced lipid accumulation”, the lipid accumulation (3T3-L1 adipocytes; differentiation induced in the presence of compound, after 12 days, 1 at 62.5 µM, 2 at 25 µM) is reported as “significantly reduced lipid accumulation” and the lipid accumulation (3T3-L1 adipocytes; mature adipocytes: differentiated 15 days, then 62.5 µM for 8 more days) is reported as “decreased lipid accumulation”. The “glucose intolerance (glucose tolerance test)” value ([1]; day 16, 0.25 mg/mouse i.p. every 48 h) was “had not developed glucose intolerance”, the “glucose intolerance (glucose tolerance test)” value ([1]; day 34, 0.25 mg/mouse i.p. every 48 h) was “became glucose intolerant” and the “Arg1 expression in the stromal vascular fraction” value (abdominal fat; [2]) was “downregulated”. The “Il10 expression in the stromal vascular fraction” value (abdominal fat; [2]) was “downregulated”, the “Adipoq expression in the fat fraction of abdominal fat” value (abdominal fat; [3]) was “lower levels” and the “Lep expression in the fat fraction of abdominal fat” value (abdominal fat; [3]) was “lower levels”.
